Source: US9426996B2, “Use of benzoxaboroles as volatile antimicrobial agents on meats, plants, or plant parts” (AgroFresh Inc., priority 2013, dated 2016)

Tests used:
Botrytis cinerea [1] = experiment: in vitro spore germination assay, temperature regimes; assay type: cell-based; conditions: B. cinerea spores; for inhibition at 0.035 µg/mL: 0.035 mg/L; for inhibition at 0.07 µg/mL: 0.07 mg/L; for inhibition at 0.14 µg/mL: 0.14 mg/L
Procedure: In order to assess the activity of Compound A as a volatile fungicide, an in vitro assay is developed to evaluate spore germination. Two mL of water agar is poured in 3.5 cm Petri plates. […] Plates are then incubated for either one day at 0° C., five day at 0° C., or five day at 0° C. plus an additional one or two days at 21° C.

Penicillium digitatum = experiment: in vivo contact drench assay on oranges
Procedure: In order to assess the activity of Compound A (FIG. 1) as a contact drench fungicide, an in vivo assay is developed. […] Compound A is dissolved in water to achieve a final treatment solution concentration of 250, 50, or 10 mg/L. The fruit is dipped in Compound A solution for 1 minute and allowed to dry for 1 hour. Fruit wounds are then inoculated with 30 μL of 1×10^6 per mL Penicillium expansum spore suspension (apple) or Penicillium digitatum spore suspension (orange). Clamshells are then placed in a 10.8-cup SnapWare airtight container (Model #109842) and incubated for 3 days at 21° C.

Botrytis cinerea [2] = experiment: in vivo volatile bioassay using strawberry, grape and blueberry
Procedure: In order to assess the in vivo activity of volatile antimicrobial Compound A in fruit, a volatile bioassay is developed using strawberry, grape and blueberry. Eight strawberries, 16 grapes or 30 blueberries (per replicate) are placed in a commercially relevant sized PET clamshell, with the stem end facing up for blueberries and grapes, and downwards for strawberries. A fresh wound is inoculated with 20 μL (strawberry and grape) or 10 μL (blueberry) of 1×10^6 per mL Botrytis cinerea spore suspension. The clamshells are placed inside a 10.8-cup SnapWare airtight container (Model #109842). A 42.5 mm Whatman #1 filter disk (Cat. No. 1001-042) is placed on a watch glass. Compound A is dissolved in acetone and added to the disks in a dose dependent manner to produce a final headspace concentration of 0.4, 2, or 10 mg/L. The acetone is permitted to evaporate for five minutes. The containers are then closed with lids and placed for three days at 21° C. After storage, fruits are evaluated for incidence and severity (0 to 4) of disease for an additional three days at 21° C., with results summarized in Table 17.

Alternaria alternata = experiment: combination treatment with 1-MCP on tomato; assay type: in vivo; conditions: tomatoes
Procedure: Each tomato fruit is wounded three times and inoculated with 1×10^6 spores/mL of Alternaria alternata and then placed in a 117 L Rubbermaid storage box (Cat #2244) with two small fans placed in opposite ends of the container. A 1000 ppb v/v 1-MCP treatment is applied (AgroFresh, Springhouse, Pa.) for 24 hours at 21° C. After completion of the 1-MCP treatment, the tomatoes are removed and placed in a 10.8-cup […] airtight container (Model #109842). […] The tomatoes are incubated for three days at 21° C., then evaluated for an additional three days at 21° C. for disease incidence and severity. Results listed in Table 29 show good activity against Alternaria alternata infection of tomato.

[3] = Blueberry, 0.4 mg/L, evaluation day 0
[4] = Blueberry, 0.4 mg/L, evaluation day 1
[5] = Blueberry, 0.4 mg/L, evaluation day 2
[6] = Blueberry, 0.4 mg/L, evaluation day 3
[7] = Blueberry, 2 mg/L, evaluation day 0
[8] = Blueberry, 2 mg/L, evaluation day 1
[9] = Blueberry, 2 mg/L, evaluation day 2
[10] = Blueberry, 2 mg/L, evaluation day 3
[11] = Blueberry, 10 mg/L, evaluation day 0
[12] = Blueberry, 10 mg/L, evaluation day 1
[13] = Blueberry, 10 mg/L, evaluation day 2
[14] = Blueberry, 10 mg/L, evaluation day 3
[15] = Grape, 0.4 mg/L, evaluation day 0
[16] = Grape, 0.4 mg/L, evaluation day 1
[17] = Grape, 0.4 mg/L, evaluation day 2
[18] = Grape, 0.4 mg/L, evaluation day 3
[19] = Grape, 2 mg/L, evaluation day 2
[20] = Grape, 2 mg/L, evaluation day 3
[21] = Grape, 10 mg/L, evaluation day 2
[22] = Grape, 10 mg/L, evaluation day 3
[23] = Strawberry, 0.4 mg/L, evaluation day 0
[24] = Strawberry, 0.4 mg/L, evaluation day 1
[25] = Strawberry, 0.4 mg/L, evaluation day 2
[26] = Strawberry, 0.4 mg/L, evaluation day 3
[27] = Strawberry, 2 mg/L, evaluation day 0
[28] = Strawberry, 2 mg/L, evaluation day 1
[29] = Strawberry, 2 mg/L, evaluation day 2
[30] = Strawberry, 2 mg/L, evaluation day 3
[31] = Strawberry, 10 mg/L, evaluation day 0
[32] = Strawberry, 10 mg/L, evaluation day 1
[33] = Strawberry, 10 mg/L, evaluation day 2
[34] = Strawberry, 10 mg/L, evaluation day 3

OB1OCc2cc(F)ccc21 [Compound A]
inhibition at 0.035 µg/mL (Botrytis cinerea [1]; 24 h, 1 day, 0° C.): 0%
inhibition at 0.07 µg/mL (Botrytis cinerea [1]; 24 h, 1 day, 0° C.): 0%
inhibition at 0.14 µg/mL (Botrytis cinerea [1]; 24 h, 1 day, 0° C.): 0%
inhibition at 0.035 µg/mL (Botrytis cinerea [1]; 120 h, 5 day, 0° C.): 0%
inhibition at 0.07 µg/mL (Botrytis cinerea [1]; 120 h, 5 day, 0° C.): 0%
inhibition at 0.14 µg/mL (Botrytis cinerea [1]; 120 h, 5 day, 0° C.): 0%
inhibition at 0.035 µg/mL (Botrytis cinerea [1]; 5 day, 0° C. 1 day, 21° C.): 0%
inhibition at 0.07 µg/mL (Botrytis cinerea [1]; 5 day, 0° C. 1 day, 21° C.): 0%
inhibition at 0.14 µg/mL (Botrytis cinerea [1]; 5 day, 0° C. 1 day, 21° C.): 0%
Sporulation (mm) (Penicillium digitatum; dip 10 mg/L): 16.6 mm
Water soaked (mm) (Penicillium digitatum; dip 10 mg/L): 27.5 mm
Sporulation (mm) (Penicillium digitatum; dip 50 mg/L): 12.0 mm
Water soaked (mm) (Penicillium digitatum; dip 50 mg/L): 18.8 mm
Sporulation (mm) (Penicillium digitatum; dip 250 mg/L): 0.4 mm
Water soaked (mm) (Penicillium digitatum; dip 250 mg/L): 1.7 mm
Incidence (%) (Botrytis cinerea [2]; [3]): 21%
Severity (0-4) (Botrytis cinerea [2]; [3]): 0.1
Incidence (%) (Botrytis cinerea [2]; [4]): 21%
Severity (0-4) (Botrytis cinerea [2]; [4]): 0.2
Incidence (%) (Botrytis cinerea [2]; [5]): 40.3%
Severity (0-4) (Botrytis cinerea [2]; [5]): 0.5
Incidence (%) (Botrytis cinerea [2]; [6]): 62.9%
Severity (0-4) (Botrytis cinerea [2]; [6]): 1
Incidence (%) (Botrytis cinerea [2]; [7]): 9.7%
Severity (0-4) (Botrytis cinerea [2]; [7]): 0
Incidence (%) (Botrytis cinerea [2]; [8]): 9.7%
Severity (0-4) (Botrytis cinerea [2]; [8]): 0
Incidence (%) (Botrytis cinerea [2]; [9]): 9.7%
Severity (0-4) (Botrytis cinerea [2]; [9]): 0.1
Incidence (%) (Botrytis cinerea [2]; [10]): 40.3%
Severity (0-4) (Botrytis cinerea [2]; [10]): 0.6
Incidence (%) (Botrytis cinerea [2]; [11]): 12.9%
Severity (0-4) (Botrytis cinerea [2]; [11]): 0.1
Incidence (%) (Botrytis cinerea [2]; [12]): 12.9%
Severity (0-4) (Botrytis cinerea [2]; [12]): 0.1
Incidence (%) (Botrytis cinerea [2]; [13]): 12.9%
Severity (0-4) (Botrytis cinerea [2]; [13]): 0.2
Incidence (%) (Botrytis cinerea [2]; [14]): 41.9%
Severity (0-4) (Botrytis cinerea [2]; [14]): 0.6
Incidence (%) (Botrytis cinerea [2]; [15]): 3.1%
Severity (0-4) (Botrytis cinerea [2]; [15]): 0
Incidence (%) (Botrytis cinerea [2]; [16]): 3.1%
Severity (0-4) (Botrytis cinerea [2]; [16]): 0
Incidence (%) (Botrytis cinerea [2]; [17]): 15.6%
Severity (0-4) (Botrytis cinerea [2]; [17]): 0.2
Incidence (%) (Botrytis cinerea [2]; [18]): 62.5%
Severity (0-4) (Botrytis cinerea [2]; [18]): 0.5
Severity (0-4) (Botrytis cinerea [2]; Grape, 2 mg/L, evaluation day 0): 0
Severity (0-4) (Botrytis cinerea [2]; Grape, 2 mg/L, evaluation day 1): 0
Incidence (%) (Botrytis cinerea [2]; [19]): 0%
Severity (0-4) (Botrytis cinerea [2]; [19]): 0
Incidence (%) (Botrytis cinerea [2]; [20]): 56.3%
Severity (0-4) (Botrytis cinerea [2]; [20]): 0.3
Severity (0-4) (Botrytis cinerea [2]; Grape, 10 mg/L, evaluation day 0): 0
Severity (0-4) (Botrytis cinerea [2]; Grape, 10 mg/L, evaluation day 1): 0
Incidence (%) (Botrytis cinerea [2]; [21]): 3.1%
Severity (0-4) (Botrytis cinerea [2]; [21]): 0
Incidence (%) (Botrytis cinerea [2]; [22]): 56.3%
Severity (0-4) (Botrytis cinerea [2]; [22]): 0.4
Incidence (%) (Botrytis cinerea [2]; [23]): 0%
Severity (0-4) (Botrytis cinerea [2]; [23]): 0
Incidence (%) (Botrytis cinerea [2]; [24]): 21.4%
Severity (0-4) (Botrytis cinerea [2]; [24]): 0.1
Incidence (%) (Botrytis cinerea [2]; [25]): 21.4%
Severity (0-4) (Botrytis cinerea [2]; [25]): 0.1
Incidence (%) (Botrytis cinerea [2]; [26]): 28.6%
Severity (0-4) (Botrytis cinerea [2]; [26]): 0.5
Incidence (%) (Botrytis cinerea [2]; [27]): 14.3%
Severity (0-4) (Botrytis cinerea [2]; [27]): 0.1
Incidence (%) (Botrytis cinerea [2]; [28]): 50%
Severity (0-4) (Botrytis cinerea [2]; [28]): 0.3
Incidence (%) (Botrytis cinerea [2]; [29]): 50%
Severity (0-4) (Botrytis cinerea [2]; [29]): 0.3
Incidence (%) (Botrytis cinerea [2]; [30]): 64.3%
Severity (0-4) (Botrytis cinerea [2]; [30]): 0.5
Incidence (%) (Botrytis cinerea [2]; [31]): 7.1%
Severity (0-4) (Botrytis cinerea [2]; [31]): 0
Incidence (%) (Botrytis cinerea [2]; [32]): 35.7%
Severity (0-4) (Botrytis cinerea [2]; [32]): 0.2
Incidence (%) (Botrytis cinerea [2]; [33]): 42.9%
Severity (0-4) (Botrytis cinerea [2]; [33]): 0.5
Incidence (%) (Botrytis cinerea [2]; [34]): 42.9%
Severity (0-4) (Botrytis cinerea [2]; [34]): 0.8
Diameter of the rot (mm) (Alternaria alternata; 0.4 mg/L): 3.8 mm
Diameter of the rot (mm) (Alternaria alternata; 2 mg/L): 0.0 mm
